{"source": "patent US9775859B2", "about": "“Methods and compositions for preventing and treating a disease related to glycan dysregulation” (Sinai Health System, priority 2005, dated 2017)", "key": {"Jurkat T-cells [1]": {"tested_on": "Jurkat T-cells", "experiment": "L-PHA-FITC staining of Jurkat T cells cultured 3 days with monosaccharides, metabolites, Vitamin D3 or glycosidase inhibitors, FACS", "format": "cell-based, human", "details": "for Mgat5 N-glycans / β1,6GlcNAc-branched N-glycans expression (L-PHA staining): 3 days culture with supplement; for Mgat5-modified N-glycan expression: Jurkat T", "experimental": "(§1) Mice used for L-PHA staining and quantitative RT-PCR were sex and age matched. […] 129/Sv mice were from an original Mgat5 gene targeted population (28). All other mice (SJL, NOD, Balb/c and B10.S) were obtained from Jackson Laboratories. […] Mouse and Jurkat cells were stained with L-PHA and LEA by first blocking with PBA (2% bovine serum albumin/0.01% azide/PBS) for 10 min at 4° C. and then incubated with 4 μg/ml of L-PHA-FITC (Vector Laboratories Inc.) or 20 μg/ml of LEA-FITC (Sigma) in PBA for 40 min at 4° C. and analyzed by a BD FACSCalihur (BD Pharmingen, San Diego, Calif.). The level of lectin binding was normalized by untreated control and calculated as a percentage (Sample intensity/control intensity-1) %.\n(§2) Mice used for L-PHA staining and quantitative RT-PCR were sex and age matched. […] 129/Sv mice were from the original Mgat5 gene targeted population (28). All other mice (SJL, NOD, Balb/c and B10.S) were obtained from Jackson Laboratories. Mouse cells were stained with anti-CD4 (RM4-5), anti-CD8 (53-6.7), anti-CD45R (RA3-6B2) from eBioscience, and L-PHA (4 μg/ml) and LEA (20 μg/ml) from Sigma. […] Jurkat T-cells were cultured in either glutamine free RPMI 1640, 10% FBS, 10 mM/20 mM glucose or glucose/glutamine free DMEM base media supplemented with 10% FBS, 1.5 mM glucose. The indicated monosaccharides and/or metabolites were added daily except glucose which was added only at time zero."}, "Jurkat T-cells [2]": {"tested_on": "Jurkat T-cells", "experiment": "LEA-FITC staining (poly-N-acetyllactosamine) of Jurkat T cells, FACS", "format": "cell-based, human", "details": "3 days culture with supplement", "experimental": "as §1, §2"}, "[3]": {"tested_on": "PL/J and C57/B6 T cell cultures", "experiment": "L-PHA staining of mouse CD3+ T cells stimulated with anti-CD3, FACS", "format": "cell-based", "details": "for up-regulation of β1,6 GlcNAc branched N-glycans following stimulation: anti-CD3, minimal concentrations; for resting levels of β1,6 GlcNAc branched N-glycans: minimal concentrations", "experimental": "as §1\nMice used for L-PHA staining and quantitative RT-PCR were sex and age matched. […] 129/Sv mice were from the original Mgat5 gene targeted population (28). All other mice (SJL, NOD, Balb/c and B10.S) were obtained from Jackson Laboratories. Mouse cells were stained with anti-CD4 (RM4-5), anti-CD8 (53-6.7), anti-CD45R (RA3-6B2) from eBioscience, and L-PHA (4 μg/ml) and LEA (20 μg/ml) from Sigma. […] The indicated monosaccharides and/or metabolites were added daily except glucose which was added only at time zero. […] The plateau or highest non-toxic dose is shown."}, "Jurkat T-cells [4]": {"tested_on": "Jurkat T-cells", "experiment": "MS/MS mass spectroscopy of sugar-nucleotide expression in Jurkat cell lysates", "format": "cell-based, human", "experimental": "Jurkat cell pellets (20×10^6) were resuspended in a cold 300 μl methanol:water (1:1) solution containing maltose as internal standard, vortexed for 10 seconds, and then pipetted into tubes containing 600 μl of chloroform:methanol (C:M) (3:2). Samples were vortexed for 1 minute, and then centrifuged at 14,000 rpm for 5 minutes at 4° C. Supernatants were collected, and an equal volume of C:M (1:1) was added, followed by a second extraction. The pooled aqueous fraction containing the hydrophilic metabolites was dried with a speedvac and stored at −80° C. Prior to injection, the samples were dissolved in 100 μl methanol:water (1:1). […] The metabolites were identified by their transitions in MS/MS, and quantified using the Analyte Software (SCIEX), which measured the area under the curve for the fragment ions corresponding to each parent ion. Quantities for the given substrates are graphed as pmole/min/10^6 cells.\nJurkaT-cell pellets (20×10^6) were resuspended in cold 300 μl methanol:water (1:1) solution containing maltose as an internal standard, vortexed for 10 seconds, and then pipetted into tubes containing 600 μl of chloroform:methanol (C:M) (3:2). […] The metabolites were identified by their transitions in MS/MS, and quantified using the Analyte Software (SCIEX), which measured the area under the curve for the fragment ions corresponding to each parent ion. […]"}, "CHO cells [5]": {"tested_on": "CHO cells", "experiment": "MALDI-TOF mass spectroscopy N-glycan profile of CHO cells", "format": "cell-based, Chinese Hamster", "details": "CHO cells treated with inhibitor", "experimental": "This was done as a service at the Glycotechnology core facility, a resource of the Glycobiology Research and Training Center (GRTC) at the University of California, San Diego. CD3+ murine T cells (6×10^6), resting PBMCs from human controls and MS subjects (6×10^6) and CHO cells (10×10^6) were lysed with 1% SDS in 100 mM Tris pH 7.4, dialyzed to remove SDS, digested with trypsin to generate glycopeptides and treated with PNGaseF to release the N-glycans. To focus on early processing, N-glycans were desialylated by mild acid digestion prior to permethylation and MALDI-TOF mass spectroscopy. Monoisotopic peaks in the spectra were identified using GlycanMass and GlycoMod online software, with specific targeting of the N-glycan intermediates occurring during Golgi processing.\n(§3) For comparison of N-glycan profiles of mice and human MS patients, CHO cells and CHO cells deficient at 5 different steps in the N-glycan pathway (Glucosidase I, Mannosidase I, MGAT1, Mannosidase II and MGAT5, FIG. 7A) were used to define relative L-PHA and Concanavillin A (ConA) lectin staining levels by FACS along with MALDI TOF N-glycan processing profiles. […] Indeed, a human infant with severe human glucosidase I deficiency accumulates Glc3Man (885 A ion in FIG. 16A, 21C) in the urine, a 4 hexose oligomer which derives from the Glucosidase I substrate Glc3Man9GlcNAc2 via endo-mannosidase activity (70). […] Such activity would produce Man8GlcNAc2, Man7GlcNAc2 and Man6GlcNAc2 structures and allow processing by Mannosidase I/II. Indeed, N-glycans of these 3 compositions accumulate in Glucosidase I/II inhibited cells when Mannosidase I activity is blocked with DMN (69). The larger structures Glc3Man9GlcNAc2 (mass 3008) and Glc3Man7GlcNAc2 (mass 2600) were also observed (67), however they were at lower relative intensities compared to the A ion group (FIG. 21C). […] Mixing CHO and Lec1 cells in various proportions confirmed that relative differences in expression of N-glycan structures can be determined using MALDI TOF (FIG. 21G)."}, "CHO cells [6]": {"tested_on": "CHO cells", "experiment": "L-PHA and ConA lectin staining of CHO cells by FACS", "format": "cell-based, Chinese Hamster", "details": "CHO cells treated with inhibitor", "excerpt": "as §3"}}, "note": "Entries after “also recorded” stand apart in the source; their conditions may differ.", "data": [{"smiles": "N", "note": "[ammonia]", "values": [{"measurement": "Mgat5 N-glycans / β1,6GlcNAc-branched N-glycans expression (L-PHA staining)", "setting": "Jurkat T-cells [1]; Jurkat T-cells", "result": "dose dependently increased"}, {"measurement": "poly-N-acetyllactosamine expression (LEA staining)", "setting": "Jurkat T-cells [2]", "result": "dose dependently increased"}]}, {"smiles": "O[C@H]1[C@H](O)[C@@H](O)CN2CC[C@H](O)[C@H]12", "note": "[castanospermine, reference compound]", "values": [{"measurement": "Mgat5 glycan / β1,6GlcNAc-branched N-glycan expression after glycosidase inhibition (L-PHA)", "setting": "Jurkat T-cells [1]; Jurkat T cells, 3 days", "result": "dose dependent reduction; also recorded: reduced"}, {"measurement": "up-regulation of β1,6 GlcNAc branched N-glycans following stimulation", "setting": "Jurkat T-cells [1]; Jurkat T cells, PMA/ionomycin or anti-CD3, minimal concentrations, listed as CST", "result": "significantly attenuated"}, {"measurement": "resting levels of β1,6 GlcNAc branched N-glycans", "setting": "Jurkat T-cells [1]; Jurkat T cells, minimal concentrations, listed as CST", "result": "without affecting; also recorded: do not affect"}, {"measurement": "up-regulation of β1,6 GlcNAc branched N-glycans following stimulation", "setting": "[3]; listed as CST", "result": "significantly attenuated"}, {"measurement": "resting levels of β1,6 GlcNAc branched N-glycans", "setting": "[3]; listed as CST", "result": "without affecting; also recorded: do not affect"}]}, {"smiles": "O=c1ccn([C@@H]2O[C@H](CO)[C@@H](O)[C@H]2O)c(=O)[nH]1", "note": "[uridine]", "values": [{"measurement": "Mgat5 N-glycans / β1,6GlcNAc-branched N-glycans expression (L-PHA staining)", "setting": "Jurkat T-cells [1]; Jurkat T-cells", "result": "dose dependently increased"}, {"measurement": "intracellular UDP-GlcNAc levels", "setting": "Jurkat T-cells [4]", "result": "dramatically raised"}, {"measurement": "poly-N-acetyllactosamine expression (LEA staining)", "setting": "Jurkat T-cells [2]", "result": "dose dependently increased"}]}, {"smiles": "CC(=O)N[C@H]1C(OC(C)=O)O[C@H](COC(C)=O)[C@@H](OC(C)=O)[C@@H]1OC(C)=O", "note": "(stereo partly drawn) [GlcNAc-tetra-acetate]", "values": [{"measurement": "effective concentration to increase Mgat5-modified N-glycan expression, fold less than GlcNAc", "setting": "Jurkat T-cells [1]; Jurkat T-cells, 3 days", "result": "~1000", "unit": "fold"}]}, {"smiles": "O=c1cc[nH]c(=O)[nH]1", "note": "[uracil]", "values": [{"measurement": "effective concentration required to raise Mgat5-modified N-glycan expression, fold reduction compared to uridine", "setting": "Jurkat T-cells [1]; Jurkat T-cells, 3 days", "result": "~100", "unit": "fold"}]}, {"smiles": "N[C@H]1C(O)O[C@H](CO)[C@@H](O)[C@@H]1O", "note": "(stereo partly drawn) [Glucosamine]", "values": [{"measurement": "Mgat5-modified N-glycan expression", "setting": "Jurkat T-cells [1]; high concentrations", "result": "do the opposite; also recorded: declines"}, {"measurement": "Mgat5-modified N-glycan expression", "setting": "Jurkat T-cells [1]; low concentrations", "result": "increase; also recorded: works"}]}, {"smiles": "CC(=O)CC(=O)O", "note": "[acetoacetate]", "values": [{"measurement": "Mgat5 N-glycans / β1,6GlcNAc-branched N-glycans expression (L-PHA staining)", "setting": "Jurkat T-cells [1]; Jurkat T-cells", "result": "dose dependently increased"}, {"measurement": "poly-N-acetyllactosamine expression (LEA staining)", "setting": "Jurkat T-cells [2]", "result": "dose dependently increased"}]}, {"smiles": "OC[C@H]1NC[C@@H](O)[C@@H](O)[C@@H]1O", "note": "[deoxymannojirimycin]", "values": [{"measurement": "MALDI TOF profile of N-glycans (accumulated structures)", "setting": "CHO cells [5]", "result": "dramatic increases in high mannose structures"}, {"measurement": "β1,6GlcNAc-branched tetra-antennary N-glycans (mass 2969, structure G)", "setting": "CHO cells [5]", "result": "diminished"}, {"measurement": "high-mannose structures as seen by ConA staining", "setting": "CHO cells [6]", "result": "increased"}, {"measurement": "β1,6GlcNAc-branched N-glycan expression by L-PHA staining", "setting": "CHO cells [6]", "result": "dramatic reductions"}, {"measurement": "up-regulation of β1,6 GlcNAc branched N-glycans following stimulation", "setting": "[3]; listed as DMN", "result": "significantly attenuated"}, {"measurement": "resting levels of β1,6 GlcNAc branched N-glycans", "setting": "[3]; listed as DMN", "result": "without affecting; also recorded: do not affect"}]}, {"smiles": "NC(=O)CC[C@H](N)C(=O)O", "note": "[glutamine]", "values": [{"measurement": "Mgat5 N-glycans / β1,6GlcNAc-branched N-glycans expression (L-PHA staining)", "setting": "Jurkat T-cells [1]; Jurkat T-cells", "result": "dose dependently increased"}, {"measurement": "poly-N-acetyllactosamine expression (LEA staining)", "setting": "Jurkat T-cells [2]", "result": "dose dependently increased"}]}]}
